The results in this text go back to patent EP0236307B1, “ANTIHYPERTENSIVE AGENTS, PHARMACEUTICAL COMPOSITIONS CONTAINING THEM AND PROCESSES FOR THE PREPARATION OF THE AGENTS AND COMPOSITIONS” (SCHERING CORPORATION, priority 1985, dated 1987).

For this experiment, the system named is angiotensin converting enzyme. The experiment in a line: In-vivo ACE inhibitory activity: inhibition of the pressor response to i.v. angiotensin I in anesthetised rats. Conditions: for ID50 (i.v.): intravenous dose required to inhibit the pressor response to i.v. angiotensin I by 50% in anesthetised rats; for ID50 (oral): oral dose required to inhibit the pressor response to i.v. angiotensin I by 50% in anesthetised rats. An excerpt:
As mentioned before the compounds of this invention show valuable antihypertensive activity. It can be concluded from animal tests that these compounds have high angiotensin converting enzyme inhibitory activity (ACE inhibitory activity). The in-vivo ACE inhibitory activity of Compound A: 1- [N-[1(S)-carboxy-3- [4-(4-chloro-3-sulfamoyl benzamido) phenyl] propyl](S)-alanyl]cis,syn-octahydroindole-2-(S)-carboxylic acid Compound B: 1-[N-[1(S)-carboxy-3-[4-(4-chloro-3-N-methyl-sulfamoyl benzamido)phenyl]propyl]-(S)-alanyl]cis, syn-octahydroindole-2(S)-carboxylic acid is as follows: […]

Take `CNS(=O)(=O)c1cc(C(=O)Nc2ccc(CC[C@H](N[C@@H](C)C(=O)N3[C@H](C(=O)O)C[C@@H]4CCCC[C@@H]43)C(=O)O)cc2)ccc1Cl` [Compound B, 1-[N-[1(S)-carboxy-3-[4-(4-chloro-3-N-methyl-sulfamoylbenzamido)phenyl]propyl]-(S)-alanyl]cis, syn-octahydroindole-2(S)-carboxylic acid]: the “ID50 (i.v.)” value was 0.033 mg/kg and the “ID50 (oral)” value is 3 mg/kg.
The matching figures for `C[C@H](N[C@@H](CCc1ccc(NC(=O)c2ccc(Cl)c(S(N)(=O)=O)c2)cc1)C(=O)O)C(=O)N1[C@H](C(=O)O)C[C@@H]2CCCC[C@@H]21` [Compound A, 1-[N-[1(S)-carboxy-3-[4-(4-chloro-3-sulfamoylbenzamido)phenyl]propyl](S)-alanyl]cis,syn-octahydroindole-2-(S)-carboxylic acid]: 0.036 mg/kg and 3 mg/kg.
